Article PMC3692424, “A New Type of Na^+-Driven ATP Synthase Membrane Rotor with a Two-Carboxylate Ion-Coupling Motif” (PLoS Biology, 2013)

Experiments:
[1] = biological target: T1, F. nucleatum F1Fo-ATP synthase (purified; c-ring site of DCCD) (Fusobacterium nucleatum, UniProt Q8RGD7); experiment: inhibition of ATP hydrolysis, ATP-regenerating assay; format: biochemical; conditions: covalent (Glu65 of subunit c); 20 min preincubation at 25 °C, 50 mM MOPS, 2 mM MgCl2, pH 7.5; no added Na+
T1 construct: gene atpE; same native holoenzyme as P1; entry split because DCCD modifies Glu65 of subunit c; with ATP synthase subunit alpha; ATP synthase subunit beta; ATP synthase gamma chain; ATP synthase subunit delta; ATP synthase epsilon chain; ATP synthase subunit a; ATP synthase subunit b

[2] = biological target: T2, F. nucleatum c11 ring (isolated c-ring) (Fusobacterium nucleatum, UniProt Q8RGD7); experiment: fluorescence increase on labelling; SDS-PAGE under UV light; format: binding; conditions: covalent (Glu65); 100 µM NCD-4, MES pH 5.7, 1.5% n-octyl-β-D-glycoside, no Na+
T2 construct: gene atpE; isolated c11 ring from hybrid ATP synthase (I. tartaricus F1-ab2) expressed in E. coli DK8; detergent-solubilized
T2 sequence (Q8RGD7 whole entry): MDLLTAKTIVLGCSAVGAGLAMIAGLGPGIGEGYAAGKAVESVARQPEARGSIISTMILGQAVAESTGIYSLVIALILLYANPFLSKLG

SMILES: C(=NC1CCCCC1)=NC1CCCCC1 [DCCD, N,N′-dicyclohexylcarbodiimide]
- inhibition of ATP hydrolysis, ATP-regenerating assay [1]: The ATPase activity of the enzyme was inhibited by DCCD in a concentration-dependent manner

SMILES: CN(C)c1ccc(N=C=NC2CCCCC2)c2ccccc12 [NCD-4, N-cyclohexyl-N′-(4-(dimethylamino)-α-naphthyl)-carbodiimide]
- fluorescence increase on labelling; SDS-PAGE under UV light [2]: NCD-4 modifies Glu65 in the isolated c-ring
